Experimental data: US20200404919A1, “USE OF HETEROARYL-TRIAZOLE AND HETEROARYL-TETRAZOLE COMPOUNDS AS PESTICIDES IN PLANT PROTECTION” (Bayer Aktiengesellschaft, priority 2018, published 2020)

Assays:
Format in all cases: in vivo
Diabrotica balteata = Diabrotica balteata - spray test; details: 168 h, 160 μg/well, germinated wheat seeds, larvae, after 7 days, read-out: efficacy in %
Protocol: Diabrotica balteata—Spray Test
(§1) To produce a suitable preparation of active compound, 1 part by weight of active compound is mixed with the stated amount of solvent, and the concentrate is diluted with water, containing an emulsifier concentration of 1000 ppm, to the desired concentration. Further test concentrations are prepared by dilution with emulsifier containing water.
Soaked wheat seeds (Triticum aestivum) are placed in a multiple well plate filled with agar and some water and are incubated for 1 day to germinate (5 seeds per well). The germinated wheat seeds are sprayed with a test solution containing the desired concentration of the active ingredient. Afterwards each unit is infected with 10-20 larvae of the banded cucumber beetle (Diabrotica balteata).
After 7 days efficacy in % is determined. 100% means all the seedlings have grown up like in the untreated, uninfected control; 0% means none of the seedlings have grown.

Aphis gossypii = Aphis gossypii - oral test; details: 120 h, read-out: mortality in %
Protocol: Solvent: 100 parts by weight acetone
To produce a suitable preparation of active compound, 1 part by weight of active compound is mixed with the stated amount of solvent, and the concentrate is diluted with water to the desired concentration.
50 μl compound solution is filled in microtiter plates and 150 μl IPL41 insect medium (33%+15% sugar) is added to obtain a total volume of 200 μl per well. Afterwards the plates are sealed with parafilm through which a mixed population of the cotton aphid (Aphis gossypii) can suck on the compound preparation.
(§2) After 5 days mortality in % is determined. 100% means all aphids have been killed and 0% means none of the aphids have been killed.

Spodoptera frugiperda = Spodoptera frugiperda - spray test; details: in Zea mays, 168 h, read-out: mortality in %
Protocol: Spodoptera frugiperda—Spray Test
as §1, with “solvents” for “solvent,”, “and” for “and the concentrate”
Maize (Zea mays) leaf sections are sprayed with a preparation of the active ingredient of the desired concentration. Once dry, the leaf sections are infested with fall armyworm larvae (Spodoptera frugiperda).
After 7 days mortality in % is determined. 100% means all caterpillars have been killed and 0% means none of the caterpillars have been killed.

Myzus persicae = Myzus persicae - oral test; details: 120 h, read-out: mortality in %
Protocol: To produce a suitable preparation of active compound, 1 part by weight of active compound is mixed with the stated amount of solvent, and the concentrate is diluted with water to the desired concentration. 50 μl compound solution is filled in microtiter plates and 150 μl IPL41 insect medium (33%+15% sugar) is added to obtain a total volume of 200 μl per well. Afterwards the plates are sealed with parafilm through which a mixed population of the green peach aphid (Myzus persicae) can suck on the compound preparation.
as §2

Phaedon cochleariae = Phaedon cochleariae - spray test; details: in Brassica rapa, foliar, 168 h, read-out: mortality in %
Protocol: Phaedon cochleariae—Spray Test
as §1, with “solvents” for “solvent,”, “and” for “and the concentrate”
Chinese cabbage (Brassica pekinensis) leaf disks are sprayed with a preparation of the active ingredient of the desired concentration. Once dry, the leaf disks are infested with mustard beetle larvae (Phaedon cochleariae).
After 7 days mortality in % is determined. 100% means all beetle larvae have been killed and 0% means none of the beetle larvae have been killed.

Nilaparvata lugens = Nilaparvata lugens - spray test 1; details: in Oryza sativa, 96 h, read-out: mortality in %, 500 g/ha, rice plants, after 4 days
Protocol: Nilaparvata lugens—Spray Test 1
as §1, with “solvents” for “solvent,”, “and” for “and the concentrate”
Rice plants (Oryza sativa) are sprayed with a preparation of the active ingredient of the desired concentration and the plants are infested with the brown planthopper (Nilaparvata lugens).
After 4 days mortality in % is determined. 100% means all planthoppers have been killed and 0% means none of the planthoppers have been killed.

Nezara viridula = Nezara viridula - spray test 1; details: in Hordeum vulgare, 96 h, read-out: mortality in %
Protocol: Nezara viridula—Spray Test 1
as §1
Barley plants (Hordeum vulgare) infested with larvae of the southern green stink bug (Nezara viridula) are sprayed with a test solution containing the desired concentration of the active ingredient.
After 4 days mortality in % is determined. 100% means all the stink bugs have been killed; 0% means none of the stink bugs have been killed.

Row | SMILES | pest or weed control at 160 µg/disc, 160 µg/well (Diabrotica balteata) [%] | mortality at 100 ppm (Aphis gossypii) [%] | mortality at 500 g/ha (Spodoptera frugiperda) [%] | mortality at 20 ppm (Myzus persicae) [%] | mortality at 500 g/ha (Phaedon cochleariae) [%] | mortality at 500 g/ha (Nilaparvata lugens) [%] | mortality at 500 g/ha (Nezara viridula) [%]
1 | CC(c1ncnn1-c1ncccn1)N(CCC(F)(F)F)C(=O)c1cc(Cl)cc(C(F)(F)F)c1 (stereo not shown) [Compound I-26, 3-chloro-N-[1-(2-pyrimidin-2-yl-1,2,4-triazol-3-yl)ethyl]-5-(trifluoromethyl)-N-(3,3,3-trifluoropropyl)benzamide] | 100 | 100 | 100 | 100 | 100 | 90 | –
2 | CC(c1ncnn1-c1ncccn1)N(CC1CC1)C(=O)c1cncc(C(F)(F)F)c1 (stereo not shown) [Compound I-28, N-(cyclopropylmethyl)-N-[1-(2-pyrimidin-2-yl-1,2,4-triazol-3-yl)ethyl]-5-(trifluoromethyl)pyridine-3-carboxamide] | 100 | 100 | – | 100 | 100 | 100 | 100
3 | CC(c1ncnn1-c1ncccn1)N(CC1CC1)C(=O)c1cc(C#N)cc(C(F)(F)F)c1 (stereo not shown) [Compound I-50, 3-cyano-N-(cyclopropylmethyl)-N-[1-(2-pyrimidin-2-yl-1,2,4-triazol-3-yl)ethyl]-5-(trifluoromethyl)benzamide] | 100 | 100 | 100 | 100 | 100 | – | 100
4 | CC(NC(=O)c1cccc(C#N)c1)c1ncnn1-c1ncccn1 (stereo not shown) [Compound I-52] | – | 100 | – | 90 | 100 | 100 | 100
5 | CC(c1ncnn1-c1ccc(Cl)cn1)N(CC1CC1)C(=O)c1cc(Cl)cc(C(F)(F)F)c1 (stereo not shown) [Compound I-84, 3-chloro-N-[1-[2-(5-chloro-2-pyridyl)-1,2,4-triazol-3-yl]ethyl]-N-(cyclopropylmethyl)-5-(trifluoromethyl)benzamide] | 100 | – | 100 | 100 | 100 | – | 100
6 | CC(c1ncnn1-c1cccnc1)N(CC1CC1)C(=O)c1cc(Cl)cc(C(F)(F)F)c1 (stereo not shown) [Compound I-85] | 100 | 100 | – | 100 | – | – | –
7 | CC(c1ncnn1-c1cccc(Cl)n1)N(CC1CC1)C(=O)c1cc(Cl)cc(C(F)(F)F)c1 (stereo not shown) [Compound I-87] | 100 | – | – | – | – | – | –
8 | CC(c1ncnn1-c1ncccn1)N(CC1CC1)C(=O)c1cncc(SC(F)(F)F)c1 (stereo not shown) [Compound I-90] | – | 100 | – | 100 | 100 | – | –
9 | CC(c1ncnn1-c1ncc(Br)cn1)N(CC1CC1)C(=O)c1cc(Cl)cc(C(F)(F)F)c1 (stereo not shown) [Compound I-92, N-[1-[2-(5-bromopyrimidin-2-yl)-1,2,4-triazol-3-yl]ethyl]-3-chloro-N-(cyclopropylmethyl)-5-(trifluoromethyl)benzamide] | 100 | 100 | 100 | 100 | 100 | – | –
10 | CC(c1ncnn1-c1ccncc1)N(CC1CC1)C(=O)c1cc(Cl)cc(C(F)(F)F)c1 (stereo not shown) [Compound I-94] | 100 | 100 | – | 100 | – | – | –
11 | CC(c1ncnn1-c1ncccn1)N(CC1CCC1)C(=O)c1cc(Cl)cc(C(F)(F)F)c1 (stereo not shown) [Compound I-101] | 100 | 100 | 100 | 100 | – | – | –
12 | CC(c1ncnn1-c1ccnc(Cl)c1)N(CC1CC1)C(=O)c1cc(Cl)cc(C(F)(F)F)c1 (stereo not shown) [Compound I-102] | 100 | – | – | – | – | – | –
13 | CC(c1ncnn1-c1cccnn1)N(CC1CC1)C(=O)c1cc(Cl)cc(C(F)(F)F)c1 (stereo not shown) [Compound I-103] | 100 | 100 | – | 90 | 100 | – | –
14 | CC(c1ncnn1-c1ncccn1)N(CC1CC1)C(=O)c1ccc(Cl)c(Cl)c1 (stereo not shown) [Compound I-104] | 100 | 90 | – | 100 | 100 | – | 100
15 | CC(c1ncnn1-c1ccc(Cl)nc1)N(CC1CC1)C(=O)c1cc(Cl)cc(C(F)(F)F)c1 (stereo not shown) [Compound I-105] | 100 | – | – | – | 100 | – | –
16 | CC(c1ncnn1-c1ncccn1)N(CC1COC1)C(=O)c1cc(Cl)cc(C(F)(F)F)c1 (stereo not shown) [Compound I-118] | 100 | – | 100 | 100 | 83 | – | –
17 | C[C@H](NC(=O)c1cc(F)cc(C#N)c1)c1ncnn1-c1ncccn1 [Compound I-128] | 100 | – | – | – | – | – | 100
18 | C[C@H](NC(=O)c1cc(Cl)cc(C(F)(F)F)c1)c1ncnn1-c1ccc(Br)cn1 [Compound I-129, N-[(1S)-1-[2-(5-bromo-2-pyridyl)-1,2,4-triazol-3-yl]ethyl]-3-chloro-5-(trifluoromethyl)benzamide] | 100 | – | 100 | – | – | – | 100
19 | CC(NC(=O)c1cc(Cl)cc(Cl)c1)c1ncnn1-c1ncc(Br)cn1 (stereo not shown) [Compound I-130] | 100 | – | 100 | – | – | – | –
20 | C[C@H](NC(=O)c1cc(Cl)cc(C(F)(F)F)c1)c1nc(C(F)(F)F)nn1-c1ccc(Cl)cn1 [Compound I-131, 3-chloro-N-{(1S)-1-[1-(5-chloropyridin-2-yl)-3-(trifluoromethyl)-1H-1,2,4-triazol-5-yl]ethyl}-5-(trifluoromethyl)benzamide] | 80 | – | 100 | – | – | 100 | 100
21 | C[C@H](NC(=O)c1cc(Cl)cc(C(F)(F)F)c1)c1ncnn1-c1ccc(I)cn1 [Compound I-132, 3-chloro-N-[(1S)-1-[2-(5-iodo-2-pyridyl)-1,2,4-triazol-3-yl]ethyl]-5-(trifluoromethyl)benzamide] | 100 | – | 100 | – | – | – | 100
22 | C[C@H](NC(=O)c1cc(F)c(Cl)c(F)c1)c1ncnn1-c1ncccn1 [Compound I-133] | 100 | – | – | – | – | – | –
23 | C[C@H](NC(=O)c1cncc(C(F)(F)F)c1)c1nc(C(F)(F)F)nn1-c1ccc(Cl)cn1 [Compound I-135] | 100 | – | 100 | – | – | – | –
24 | C[C@H](NC(=O)c1cc(C(F)(F)F)cc(C(F)(F)F)c1)c1nc(C(F)(F)F)nn1-c1ccc(Cl)cn1 [Compound I-136, N-[(1S)-1-[2-(5-chloro-2-pyridyl)-5-(trifluoromethyl)-1,2,4-triazol-3-yl]ethyl]-3,5-bis(trifluoromethyl)benzamide] | 100 | – | 100 | – | – | – | –
25 | C[C@H](NC(=O)c1cc(Cl)cc(Br)c1)c1ncnn1-c1ccc(Cl)cn1 [Compound I-137, 3-bromo-5-chloro-N-[(1S)-1-[2-(5-chloro-2-pyridyl)-1,2,4-triazol-3-yl]ethyl]benzamide] | 100 | – | 100 | – | – | – | 100
